Measurements taken from patent US20140163099A1, “ANTIMICROBIAL COMPOSITION” (TAKASAGO INTERNATIONAL CORPORATION, priority 2011, published 2014).
Values after ≈ are worked out from the molar mass of the structure shown.

Experiments:
Assay type in all cases: cell-based
[1] = system: Porphyromonas gingivalis (JCM8525); assay: Growth inhibition activity (MIC, agar) against anaerobic bacteria; conditions: Porphyromonas gingivalis, JCM8525, 72 h, strain JCM8525; Trypticase Soy Broth agar, 37 degrees C. for 3 days; read-out: MIC (Minimum Inhibitory Concentration)
Description: (§1) In the present invention, the growth inhibition activity, which is an indicator of the antimicrobial activity, is evaluated by determining the Minimum Inhibitory Concentration (MIC) with an agar or liquid medium.
In the test for growth inhibition activity, the following strains were used: • Acne bacteria: Propionibacterium acnes (JCM6473) and (ATCC6919) • Abscess bacteria: Bacteroides fragilis (GAI5560) • Cavity-causing bacteria: Streptococcus mutans (JCM5175), Actinomyces naeslundii (JCM8350) and Actinomyces viscosus (JCM8352) • Periodontal pathogen: Fusobacterium nucleatum (JCM6328), Porphyromonas gingivalis (JCM8525), Prevotella nigrescens (JCM6322)
The test strains were cultured in a GAM medium (Nissui Pharmaceutical Co., LTD), a Schaedler Broth (BBL) or a Trypticase Soy Broth (BBL) liquid medium, and then the grown bacteria were diluted in saline to prepare turbidity 0.5 McFarland of the bacteria fluids for inoculation. The bacteria were cultured at 37 degrees C. for 3 days under an anaerobic condition by using AnaeroPack® from MGC.
(§2) Furthermore, in order to examine the growth inhibition activities against the bacteria by the above cooling agent, the concentration of the cooling agents: (3S)-CA20, (3R)-CA20, CA1, CA5, CA15, CA55 or CA MGH was diluted with ethanol to the required level of concentrations for the determining the Minimum Inhibitory Concentration to produce the sample liquids.
Next, 100 μL of each sample liquid was added to 10 mL of a Trypticase Soy Broth agar medium solution in a soluble state, and each agar medium solution was poured into a petri dish and solidified, to prepare the test plates. Subsequently, 5 μL of above the bacteria fluids for inoculation were stamped on the test plates, and then the test plates were cultured at 37 degrees C. for 3 days.
(§3) The minimum concentration of the cooling agent in which the growth of bacteria could not be confirmed was considered as the MIC (Minimum Inhibitory Concentration).
as §3

[2] = system: Corynebacterium minutissimum (NBRC15361T); assay: Growth inhibition activity (MIC, agar) against aerobic bacteria; conditions: Corynebacterium minutissimum; strain NBRC15361T; Mueller Hinton Agar, 37 degrees C. overnight; read-out: MIC (Minimum Inhibitory Concentration)
Description: as §1
(§4) In the test for the growth inhibition activity, the following strains were used as skin-related bacteria: • Staphylococcus epidermidis: Staphylococcus epidermidis (JCM2414T and ATCC 12228) • Staphylococcus aureus: Staphylococcus aureus (NBRC12732 and JCM2151) • Skin indigenous bacteria which introduce a superficial infection: Corynebacterium minutissimum (NBRC15361T) • Armpit odor-causing bacteria: Corynebacterium xerosis (JCM1324)
(§5) The test strains were cultured in the liquid medium which the Bioresource center recommends, and then the test strains were subcultured to a Mueller Hinton Broth (Difco) at 30 degrees C. The grown bacteria were diluted to 10^6 CFU/ml with saline to adjust the bacteria fluids for inoculation.
as §2, with “agents,” for “agent,”, “concentration” for “concentrations”
(§6) Next, 100 μL of each sample liquid was added to 10 mL of a Mueller Hinton Agar (Difco) agar medium solution in a soluble state, and each agar medium solution was poured into a petri dish and solidified to prepare test plates having several concentrations of the sample liquids (several concentrations of the above cooling agents). Subsequently, 5 μL of the above bacteria fluids for inoculation were stamped on the test plates, and then the test plates were cultured at 37 degrees C. overnight.
(§7) In this way, the growth inhibition activities by (3S)-CA20, (3R)-CA20, CA1, CA5, CA15, CA55, CA MGH were examined. The minimum concentration of the cooling agent in which the growth of bacteria could not be confirmed was considered as the MIC (Minimum Inhibitory Concentration).
(§8) The minimum concentration of the cooling agent in which the grown strain could not be confirmed was considered as the MIC (Minimum Inhibitory Concentration).

[3] = system: Staphylococcus aureus (JCM2151); assay: as above; conditions: Staphylococcus aureus; strain JCM2151; Mueller Hinton Agar, 37 degrees C. overnight; read-out: MIC (Minimum Inhibitory Concentration)
Description: as §1, §4, §5
as §2, with “agents,” for “agent,”, “concentration” for “concentrations”
as §6, §7, §8

[4] = system: Klebsiella pneumoniae (NBRC13277); assay: as above; conditions: Klebsiella pneumoniae; strain NBRC13277; Mueller Hinton Agar, 37 degrees C. overnight; read-out: MIC (Minimum Inhibitory Concentration)
Description: as §1
(§9) Furthermore, the following bacteria were also used as other general aerobic bacteria: • Escherichia coli: Escherichia coli (NBRC3972) • Pseudomonas aeruginosa: Pseudomonas aeruginosa (NBRC13275) • Bacteria in intestines: Proteus vulgaris (NBRC3167) • Pneumobacillus: Klebsiella pneumoniae (NBRC13277) • Bacillus subtilis: Bacillus subtilis (NBRC3134)
as §5
as §2, with “agents,” for “agent,”, “concentration” for “concentrations”
as §6, §7, §8

[5] = system: Escherichia coli (NBRC3972); assay: as above; conditions: Escherichia coli; strain NBRC3972; Mueller Hinton Agar, 37 degrees C. overnight; read-out: MIC (Minimum Inhibitory Concentration)
Description: as §1, §9, §5
as §2, with “agents,” for “agent,”, “concentration” for “concentrations”
as §6, §7, §8

[6] = system: Pseudomonas aeruginosa (NBRC13275); assay: as above; conditions: Pseudomonas aeruginosa; strain NBRC13275; Mueller Hinton Agar, 37 degrees C. overnight; read-out: MIC (Minimum Inhibitory Concentration)
Description: as §1, §9, §5
as §2, with “agents,” for “agent,”, “concentration” for “concentrations”
as §6, §7, §8

[7] = system: Bacillus subtilis (NBRC3134); assay: as above; conditions: Bacillus subtilis; strain NBRC3134; Mueller Hinton Agar, 37 degrees C. overnight; read-out: MIC (Minimum Inhibitory Concentration)
Description: as §1, §9, §5
as §2, with “agents,” for “agent,”, “concentration” for “concentrations”
as §6, §7, §8

[8] = system: Proteus vulgaris (NBRC3167); assay: as above; conditions: Proteus vulgaris; strain NBRC3167; Mueller Hinton Agar, 37 degrees C. overnight; read-out: MIC (Minimum Inhibitory Concentration)
Description: as §1, §9, §5
as §2, with “agents,” for “agent,”, “concentration” for “concentrations”
as §6, §7, §8

Compound | MIC [1] [µg/mL] | MIC [2] [µg/mL] | MIC [3] [µg/mL] | MIC [4] [µg/mL] | MIC [5] [µg/mL] | MIC [6] [µg/mL] | MIC [7] [µg/mL] | MIC [8] [µg/mL]
CC(O)CC(=O)OC1CC(C)CCC1C(C)C [(3S)-CA20, menthyl 3-hydroxybutanoate] | < 50 | 200 (≈ 0.825 mM) | 100 (≈ 0.413 mM) | 200 (≈ 0.825 mM) | > 1600 | > 1600 | 200 (≈ 0.825 mM) | > 1600
CC1CCC(C(C)C)C(OCC(C)(O)CO)C1 (centres unmarked) [CA1, 2-methyl-3-(menthoxy)propane-1,2-diol] | 200 (≈ 0.818 mM) | 400 (≈ 1.64 mM) | 400 (≈ 1.64 mM) | 400 (≈ 1.64 mM) | > 1600 | > 1600 | 400 (≈ 1.64 mM) | > 1600
CC1CCC(C(C)C)C(OC(=O)C=O)C1 (centres unmarked) [CA MGH, menthyl glyoxylate] | 50 (≈ 0.236 mM) | 100 (≈ 0.471 mM) | 100 (≈ 0.471 mM) | 50 (≈ 0.236 mM) | 800 (≈ 3.77 mM) | 800 (≈ 3.77 mM) | 50 (≈ 0.236 mM) | 100 (≈ 0.471 mM)
CC1CCC(C(C)C)C(O)C1 (stereo not drawn) [l-menthol, menthol, reference compound] | – | 1600 (≈ 10.2 mM) | 1600 (≈ 10.2 mM) | 1600 (≈ 10.2 mM) | 1600 (≈ 10.2 mM) | > 1600 | 1600 (≈ 10.2 mM) | 1600 (≈ 10.2 mM)

The remaining lines, values ahead:

MIC [1] [µg/mL] | MIC [2] [µg/mL] | MIC [3] [µg/mL] | MIC [4] [µg/mL] | MIC [5] [µg/mL] | MIC [6] [µg/mL] | MIC [7] [µg/mL] | MIC [8] [µg/mL] | Compound
– | 800 (≈ 3.99 mM) | 400 (≈ 2 mM) | 400 (≈ 2 mM) | > 1600 | > 1600 | 800 (≈ 3.99 mM) | 1600 (≈ 7.99 mM) | CC1CCC(C(C)C)C(OCCO)C1 (centres unmarked) [CA5, 2-(menthoxy)ethanol]
– | 800 (≈ 3.47 mM) | 800 (≈ 3.47 mM) | 800 (≈ 3.47 mM) | > 1600 | > 1600 | 800 (≈ 3.47 mM) | 1600 (≈ 6.95 mM) | CC1CCC(C(C)C)C(OCC(O)CO)C1 (centres unmarked) [CA10, 3-menthoxypropane-1,2-diol, reference compound]
– | 200 (≈ 0.933 mM) | 200 (≈ 0.933 mM) | 200 (≈ 0.933 mM) | > 1600 | > 1600 | 400 (≈ 1.87 mM) | > 1600 | CC1CCC(C(C)C)C(OCCCO)C1 (centres unmarked) [CA15, 3-menthoxypropan-1-ol]
– | > 1600 | > 1600 | > 1600 | > 1600 | > 1600 | 800 (≈ 4.64 mM) | > 1600 | CC1CCC(C(C)(C)O)C(O)C1 (centres unmarked) [CA38, p-menthane-3,8-diol, reference compound]
– | 800 (≈ 3.27 mM) | 800 (≈ 3.27 mM) | 800 (≈ 3.27 mM) | > 1600 | > 1600 | 800 (≈ 3.27 mM) | > 1600 | CC1CCC(C(C)C)C(OCCOCCO)C1 (centres unmarked) [CA55, 2-(2-menthoxyethoxy)ethanol]
> 1600 | > 1600 | > 1600 | > 1600 | > 1600 | > 1600 | > 1600 | > 1600 | CNC(=O)C(C)(C(C)C)C(C)C [WS-23, N-methyl-2-isopropyl-2,3-dimethylbutanamide, reference compound]
